In paper PMC4263429 (Biochemistry, 2014):

Columns and labels:
[1] = system: type 2 dehydratase from E. coli; settings: cited from earlier work
[2] = system: type 1 dehydratase from P. asaccharolyticus; settings: cited from earlier work
N[C@@H](CO)C(=O)O = test: purified protein, by the assay type

Row | Molecule | type of inhibition [1] | type of inhibition [2] | kcat/Km (N[C@@H](CO)C(=O)O) [M⁻¹ s⁻¹]
1 | N[C@H](CO)C(=O)O [D-serine] | competitive inhibitors |  | 
2 | N[C@@H](CS)C(=O)O [L-cysteine] | competitive inhibitors | competitive inhibitor | 
3 | (Legionella pneumophila str. Lens) |  |  | 165000 ± 8000
